# Measurements from patent US7939074B2, “Combination of an anti-EP-CAM antibody with a chemotherapeutic agent” (GlaxoSmithKline LLC, priority 1999, dated 2011).
# Counter-ions that a name gives are not always drawn.
# Tests used:
# [1] = system: Ep-CAM antigen on adenocarcinoma cells; experiment: Quantification of Ep-CAM antigen expression by binding of fluorescein-conjugated 323/A3 versus calibrated microbead standards; type: cell-based, human; conditions: adenocarcinoma cells exposed to drugs, Example 2 / FIG. 2, versus media
# Experimental: (§1) Populations of PC-3 prostatic adenocarcinoma cells were evaluated for distribution in G0/G1, S, and G2/M phases of the cell cycle as well as Ep-CAM expression. Cells were gently trypsinized and mechanically detached from the culture flasks and resuspended in calcium and magnesium-free phosphate-buffered saline containing bovine serum albumin and NaN3. Exactly 2×10^5 cells were stained with FITC-323/A3 murine IgG antibody or FITC-murine IgG (control). Cells were fixed with cold paraformaldehyde, then permeabilized for DNA staining with Tween-20. Cellular DNA was stained with propidium iodide and RNase A. Listmode data were acquired on a FACScan flow cytometer (Becton Dickinson Immunocytometry Systems) equipped with a 488 nm laser using Cell Fit software. Cell cycle analysis was done using SOBR modelling (where possible, otherwise manual estimations were employed) on Cell Fit. Ep-CAM antigen expression as detected by 323/A3 binding was evaluated separately using histogram analysis in WINLIST™ (Verity Software House).
# (§2) Subconfluent cells were exposed to NAVELBINE® or TAXOL® for up to 24 hours, then washed and exposed to cisplatin or carboplatin, respectively, overnight. Cells were exposed to 5FU for 24 hours, and for 2-5 days to the interferons. Cells were washed and cultured for another 2-5 days prior to analysis for antigen expression and cell cycle status as described in Example 1. Antigen expression was quantified by comparison of the binding of fluorescein-conjugated 323/A3 to cultured cells with binding to calibrated microbead standards.
# The expression of Ep-CAM antigen was quantified on a variety of adenocarcinoma cell lines as well as primary cultures of normal human cells. Cultured subconfluent cells were exposed sequentially to media, or to 30 nM NAVELBINE® followed by 5 μM cisplatin (NVB+CDDP), or to 80 nM TAXOL® followed by 100 μM carboplatin (TAX+CPBDA). Cells were washed with media and cultured for another 2-5 days prior to analysis for antigen expression as described in Examples 1 and 2.
# [2] = system: adenocarcinoma cells; experiment: Cell cycle analysis (propidium iodide flow cytometry) of drug-exposed adenocarcinoma cell lines; type: cell-based, human; conditions: adenocarcinoma cell line; NVB 30 nM then CDDP 5 μM; TAX 80 nM then CPBDA 100 μM; interferons 100 U/ml; media control 6.3%
# Experimental: as §1, §2
# [3] = system: HT29 adenocarcinoma cells; experiment: Binding of PANOREX to drug-treated HT29 cells; type: cell-based, human; conditions: 15 minute incubation with PANOREX after culture with drugs
# Experimental: as §2
# The binding of PANOREX®, a related murine monoclonal antibody with specificity for the Ep-CAM antigen, was evaluated after a 15 minute incubation with HT29 adenocarcinoma cells which had been cultured with NAVELBINE® plus Cisplatin or with TAXOL® as previously described. A significant increase (34%) in antibody binding was seen on the cells treated with NAVELBINE® plus Cisplatin; 82% of these cells were arrested in S or G2/M cycle phase compared to 21% of the control cells.
# [4] = system: HT29 adenocarcinoma cells; experiment: Cell cycle arrest in drug-treated HT29 cells; type: cell-based, human; conditions: HT29 cells cultured with drugs; control cells 21%
# Experimental: as §1, with “Cellular DNA was stained with propidium iodide and RNase A. Listmode data were acquired on a FACScan flow cytometer (Becton Dickinson Immunocytometry Systems) equipped with a 488 nm laser using Cell Fit software. Cell cycle analysis was done using SOBR modelling (where possible, otherwise manual estimations were employed) on Cell Fit.” left out
# Subconfluent cells were exposed to NAVELBINE® or TAXOL® for up to 24 hours, then washed and exposed to cisplatin or carboplatin, respectively, overnight. […] Antigen expression was quantified by comparison of the binding of fluorescein-conjugated 323/A3 to cultured cells with binding to calibrated microbead standards.
# The binding of PANOREX®, a related murine monoclonal antibody with specificity for the Ep-CAM antigen, was evaluated after a 15 minute incubation with HT29 adenocarcinoma cells which had been cultured with NAVELBINE® plus Cisplatin or with TAXOL® as previously described. […]
# [5] = system: Human colon adenocarcinoma (HT-29) tumours; experiment: Localization of 177Lu-labelled humanised 323/A3 IgG4cys-TMT to HT-29 xenografts after drug pre-treatment; type: in vivo, female CD-1 nude mice; conditions: HT-29 xenograft mice; NAVELBINE 28 mg/kg i.v. or 5-FU 20 mg/kg i.p. on days 1 and 5; labelled antibody on day 6
# Experimental: Human colon adenocarcinoma (HT-29) tumours were initiated by subcutaneous implantation into female CD-1 nude mice (Charles River). When the tumours reached 200-300 mg, animals were divided into groups of five. NAVELBINE® was injected intravenously at a dosage of 28 mg/kg on days 1 and 5. A control group was dosed with 5-fluorouracil (5-FU) intraperitoneally at 20 mg/kg on days 1 and 5. On day 6, humanised 323/A3 IgG4cys-TMT (a humanized monoclonal antibody chelator conjugate with specificity for the Ep-CAM antigen) was labelled with lutetium-177 and injected intravenously via the lateral tail vein. Each mouse received […]/2.09 μCi lutetium-177/0.2 ml injection. Blood, spleen, liver, lung, kidney, femur and tumour were harvested on days 1, 3 and 5 post-antibody for direct gamma counting (see FIG. 5 for results).
Molecule,Ep-CAM antigen expression [1],cells in S and G2/M phases combined [2] [%],increase in antibody binding (PANOREX) [3] [%],cells arrested in S or G2/M cycle phase [4] [%],antibody targeting to Ep-CAM positive tumours [5]
IFN-α,not significantly increased,12,–,–,–
"O=c1[nH]cc(F)c(=O)[nH]1 [5FU, 5-Fluorouracil]",not significantly increased,7.9,–,–,–
"IFN-γ: interferon-gamma, used at 100 U/ml",not significantly increased,11.5,–,–,–
"CC(=O)O[C@H]1C(=O)[C@@]2(C)[C@H]([C@H](OC(=O)c3ccccc3)[C@]3(O)C[C@H](OC(=O)[C@H](O)[C@@H](NC(=O)c4ccccc4)c4ccccc4)C(C)=C1C3(C)C)[C@]1(OC(C)=O)CO[C@@H]1C[C@@H]2O [TAXOL®, 5β,20 epoxy-1,2α,4,7β,10β,13α-hexahydroxytax-11-en-9-one 4,10-diacetate 2-benzoate 13-ester with (2R,3S)-N-benzoyl-3-phenylisoserine]",–,–,8,57,–
"CCC1=C[C@@H]2CN(C1)Cc1c([nH]c3ccccc13)[C@@](C(=O)OC)(c1cc3c(cc1OC)N(C)[C@H]1[C@@](O)(C(=O)OC)[C@H](OC(C)=O)[C@]4(CC)C=CCN5CC[C@]31[C@@H]54)C2 (relative stereo) [NAVELBINE®, 3′,4′-didehydro-4′-deoxy-C′-norvincaleukoblastine [R-(R*,R*)-2,3-dihydroxybutanedioate (1:2)(salt)]]",–,–,–,–,increases antibody targeting
